Experiments:
Experiment in all cases: cells
NB17 = format: functional, cell-based, Homo sapiens; conditions: Homo sapiens, NB17;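 further: growth inhibition of NB17 cells, read out with a cell viability assay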
Description: SANGER: Inhibition of human NB17 cell growth in a cell viability assay.

COLO-684 = format: functional, cell-based, Homo sapiens; conditions: Homo sapiens, COLO-684
Description: SANGER: Inhibition of human COLO-684 cell growth in a cell viability assay.

EW-1 = format: functional, cell-based, Homo sapiens; conditions: Homo sapiens, EW-1
Description: SANGER: Inhibition of human EW-1 cell growth in a cell viability assay.

KNS-42 = format: functional, cell-based, Homo sapiens; conditions: Homo sapiens, KNS-42;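 further: growth inhibition of KNS-42 cells, read out with a cell viability assay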
Description: SANGER: Inhibition of human KNS-42 cell growth in a cell viability assay.

EOL1 = format: functional, cell-based, Homo sapiens; conditions: Homo sapiens, EOL1;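 further: growth inhibition of EoL-1 cells, read out by a cell viability assay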
Description: SANGER: Inhibition of human EoL-1-cell cell growth in a cell viability assay.

8-MG-BA = format: functional, cell-based, Homo sapiens; conditions: Homo sapiens, 8-MG-BA;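 further: growth inhibition of 8-MG-BA cells, read out with a cell viability assay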
Description: SANGER: Inhibition of human 8-MG-BA cell growth in a cell viability assay.

MZ7-mel = format: functional, cell-based, Homo sapiens; conditions: Homo sapiens, MZ7-mel;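 further: growth inhibition of human MZ7-mel cells, measured by a cell viability assay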
Description: SANGER: Inhibition of human MZ7-mel cell growth in a cell viability assay.

KS-1 = format: functional, cell-based, Homo sapiens; conditions: Homo sapiens, KS-1;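 further: growth inhibition of KS-1 cells, read out with a cell viability assay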
Description: SANGER: Inhibition of human KS-1 cell growth in a cell viability assay.

HCE-4 = format: functional, cell-based, Homo sapiens; conditions: Homo sapiens, HCE-4;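 further: cell viability assay measuring inhibition of growth in the human HCE-4 cell line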
Description: SANGER: Inhibition of human HCE-4 cell growth in a cell viability assay.

COLO-668 = format: functional, cell-based, Homo sapiens; conditions: Homo sapiens, COLO-668
Description: SANGER: Inhibition of human COLO-668 cell growth in a cell viability assay.

EW-16 = format: functional, cell-based, Homo sapiens; conditions: Homo sapiens, EW-16;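 further: growth inhibition of human EW-16 cells, read out as cell viability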
Description: SANGER: Inhibition of human EW-16 cell growth in a cell viability assay.

CGTH-W-1 = format: functional, cell-based, Homo sapiens; conditions: Homo sapiens, CGTH-W-1;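 further: growth inhibition of human CGTH-W-1 cells measured by cell viability assay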
Description: SANGER: Inhibition of human CGTH-W-1 cell growth in a cell viability assay.

LAN-6 = format: functional, cell-based, Homo sapiens; conditions: Homo sapiens, LAN-6;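 further: growth inhibition of LAN-6 cells, determined with a cell viability assay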
Description: SANGER: Inhibition of human LAN-6 cell growth in a cell viability assay.

EW-11 = format: functional, cell-based, Homo sapiens; conditions: Homo sapiens, EW-11;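 further: growth inhibition of human EW-11 cells, measured with a cell viability assay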
Description: SANGER: Inhibition of human EW-11 cell growth in a cell viability assay.

HH = format: functional, cell-based, Homo sapiens; conditions: Homo sapiens, HH
Description: SANGER: Inhibition of human HH cell growth in a cell viability assay.

DB = format: functional, cell-based, Homo sapiens; conditions: Homo sapiens, DB
Description: SANGER: Inhibition of human DB cell growth in a cell viability assay.

BV-173 = format: functional, cell-based, Homo sapiens; conditions: Homo sapiens, BV-173
Description: SANGER: Inhibition of human BV-173 cell growth in a cell viability assay.

GAK = format: functional, cell-based, Homo sapiens; conditions: Homo sapiens, GAK;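 further: cell growth inhibition read out by a cell viability assay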
Description: SANGER: Inhibition of human GAK cell growth in a cell viability assay.

TE-5 = format: functional, cell-based, Homo sapiens; conditions: Homo sapiens, TE-5;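 further: inhibition of cell growth, read out by a cell viability assay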
Description: SANGER: Inhibition of human TE-5 cell growth in a cell viability assay.

COLO-800 = format: functional, cell-based, Homo sapiens; conditions: Homo sapiens, COLO-800;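 further: growth inhibition of COLO-800 cells, read out with a cell viability assay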
Description: SANGER: Inhibition of human COLO-800 cell growth in a cell viability assay.

no-11 = format: functional, cell-based, Homo sapiens; conditions: Homo sapiens;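 further: growth inhibition of human NO-11 cells, read out with a cell viability assay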
Description: SANGER: Inhibition of human no-11 cell growth in a cell viability assay.

LB771-HNC = format: functional, cell-based, Homo sapiens; conditions: Homo sapiens, LB771-HNC;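 further: growth inhibition of LB771-HNC human cells, read out with a cell viability assay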
Description: SANGER: Inhibition of human LB771-HNC cell growth in a cell viability assay.

JAR = format: functional, cell-based, Homo sapiens; conditions: Homo sapiens, JAR;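 further: growth inhibition of human JAR cells determined with a cell viability assay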
Description: SANGER: Inhibition of human JAR cell growth in a cell viability assay.

HDLM-2 = format: functional, cell-based, Homo sapiens; conditions: Homo sapiens, HDLM-2;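 further: cell viability assay measuring suppression of HDLM-2 proliferation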
Description: SANGER: Inhibition of human HDLM-2 cell growth in a cell viability assay.

KM-H2 = format: functional, cell-based, Homo sapiens; conditions: Homo sapiens, KM-H2;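 further: growth inhibition of KM-H2 cells, read out by a cell viability assay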
Description: SANGER: Inhibition of human KM-H2 cell growth in a cell viability assay.

Calu-6 = format: functional, cell-based, Homo sapiens; conditions: Homo sapiens, Calu-6;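 further: growth of human Calu-6 cells, read out by a cell viability assay, IC50 marking inhibition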
Description: SANGER: Inhibition of human Calu-6 cell growth in a cell viability assay.

COLO-320-HSR = format: functional, cell-based, Homo sapiens; conditions: Homo sapiens, COLO-320-HSR;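 further: growth inhibition of COLO-320-HSR cells, determined with a cell viability assay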
Description: SANGER: Inhibition of human COLO-320-HSR cell growth in a cell viability assay.

TE-12 = format: functional, cell-based, Homo sapiens; conditions: Homo sapiens, TE-12;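 further: growth inhibition of TE-12 cells, read out by a cell viability assay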
Description: SANGER: Inhibition of human TE-12 cell growth in a cell viability assay.

ML-2 = format: functional, cell-based, Homo sapiens; conditions: Homo sapiens, ML-2;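 further: growth inhibition of ML-2 cells, measured with a cell viability readout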
Description: SANGER: Inhibition of human ML-2 cell growth in a cell viability assay.

BB30-HNC = format: functional, cell-based, Homo sapiens; conditions: Homo sapiens, BB30-HNC;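 further: growth inhibition of the cultured cell line, read out by a cell viability assay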
Description: SANGER: Inhibition of human BB30-HNC cell growth in a cell viability assay.

HL-60 = format: functional, cell-based, Homo sapiens; conditions: Homo sapiens, HL-60;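 further: growth inhibition of human HL-60 cells, read out with a cell viability assay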
Description: SANGER: Inhibition of human HL-60 cell growth in a cell viability assay.

TE-8 = format: functional, cell-based, Homo sapiens; conditions: Homo sapiens, TE-8;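 further: growth inhibition of TE-8 cells, measured with a cell viability readout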
Description: SANGER: Inhibition of human TE-8 cell growth in a cell viability assay.

COLO-829 = format: functional, cell-based, Homo sapiens; conditions: Homo sapiens, COLO-829
Description: SANGER: Inhibition of human COLO-829 cell growth in a cell viability assay.

ES8 = format: functional, cell-based, Homo sapiens; conditions: Homo sapiens, ES8;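 further: growth inhibition of human ES8 cells, read out with a cell viability assay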
Description: SANGER: Inhibition of human ES8 cell growth in a cell viability assay.

KURAMOCHI = format: functional, cell-based, Homo sapiens; conditions: Homo sapiens, KURAMOCHI;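 further: growth inhibition of KURAMOCHI cells, read out with a cell viability assay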
Description: SANGER: Inhibition of human KURAMOCHI cell growth in a cell viability assay.

NCI-H720 = format: functional, cell-based, Homo sapiens; conditions: Homo sapiens, NCI-H720;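 further: growth inhibition of human NCI-H720 cells determined by a cell viability assay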
Description: SANGER: Inhibition of human NCI-H720 cell growth in a cell viability assay.

SHP77 = format: functional, cell-based, Homo sapiens, SHP-77; conditions: Homo sapiens, SHP77;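 further: growth inhibition of human SHP-77 cells measured by a cell viability assay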
Description: SANGER: Inhibition of human SHP-77 cell growth in a cell viability assay.

A253 cell line = format: functional, cell-based, Homo sapiens; conditions: Homo sapiens, A253;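 further: growth inhibition of A253 cells, read out with a cell viability assay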
Description: SANGER: Inhibition of human A253 cell growth in a cell viability assay.

NCI-H1395 = format: functional, cell-based, Homo sapiens; conditions: Homo sapiens, NCI-H1395;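 further: cell viability assay read-out quantifying reduced proliferation of human NCI-H1395 cells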
Description: SANGER: Inhibition of human NCI-H1395 cell growth in a cell viability assay.

SW982 = format: functional, cell-based, Homo sapiens; conditions: Homo sapiens, SW982;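 further: growth inhibition of SW982 cells, read out with a cell viability assay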
Description: SANGER: Inhibition of human SW982 cell growth in a cell viability assay.

A388 = format: functional, cell-based, Homo sapiens; conditions: Homo sapiens, A388;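 further: growth inhibition of human A388 cells, read out with a cell viability assay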
Description: SANGER: Inhibition of human A388 cell growth in a cell viability assay.

D283 Med = format: functional, cell-based, Homo sapiens; conditions: Homo sapiens, D283 Med
Description: SANGER: Inhibition of human D-283MED cell growth in a cell viability assay.

ALL-PO = format: functional, cell-based, Homo sapiens; conditions: Homo sapiens, ALL-PO;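 further: growth inhibition of ALL-PO cells, read out by a cell viability assay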
Description: SANGER: Inhibition of human ALL-PO cell growth in a cell viability assay.

LOX IMVI = format: functional, cell-based, Homo sapiens; conditions: Homo sapiens, LOX IMVI
Description: SANGER: Inhibition of human LOXIMVI cell growth in a cell viability assay.

LS-123 = format: functional, cell-based, Homo sapiens; conditions: Homo sapiens, LS-123
Description: SANGER: Inhibition of human LS-123 cell growth in a cell viability assay.

TE-9 = format: functional, cell-based, Homo sapiens; conditions: Homo sapiens, TE-9;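 further: cell growth inhibition, measured with a cell viability readout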
Description: SANGER: Inhibition of human TE-9 cell growth in a cell viability assay.

Cc1ccc(-c2c(C(=O)CCl)n(CCCO)c3ncnc(N)c23)cc1
IC50 (NB17): 1120 nM | IC50 (COLO-684): > 4000 nM | IC50 (EW-1): > 4000 nM | IC50 (KNS-42): > 4000 nM | IC50 (EOL1): > 4000 nM | IC50 (8-MG-BA): > 4000 nM | IC50 (MZ7-mel): > 4000 nM | IC50 (KS-1): 1050 nM | IC50 (HCE-4): > 4000 nM | IC50 (COLO-668): > 4000 nM | IC50 (EW-16): > 4000 nM | IC50 (CGTH-W-1): > 4000 nM | IC50 (LAN-6): > 4000 nM | IC50 (EW-11): > 4000 nM | IC50 (HH): > 4000 nM | IC50 (DB): > 4000 nM | IC50 (BV-173): > 4000 nM | IC50 (GAK): > 4000 nM | IC50 (TE-5): > 4000 nM | IC50 (COLO-800): > 4000 nM | IC50 (no-11): > 4000 nM | IC50 (LB771-HNC): > 4000 nM | IC50 (JAR): > 4000 nM | IC50 (HDLM-2): > 4000 nM | IC50 (KM-H2): > 4000 nM | IC50 (Calu-6): > 4000 nM | IC50 (COLO-320-HSR): > 4000 nM | IC50 (TE-12): > 4000 nM | IC50 (ML-2): > 4000 nM | IC50 (BB30-HNC): 1820 nM | IC50 (HL-60): > 4000 nM | IC50 (TE-8): 1970 nM | IC50 (COLO-829): > 4000 nM | IC50 (ES8): > 4000 nM | IC50 (KURAMOCHI): > 4000 nM | IC50 (NCI-H720): > 4000 nM | IC50 (SHP77): > 4000 nM | IC50 (A253 cell line): > 4000 nM | IC50 (NCI-H1395): > 4000 nM | IC50 (SW982): 1310 nM | IC50 (A388): 2190 nM | IC50 (D283 Med): > 4000 nM | IC50 (ALL-PO): > 4000 nM | IC50 (LOX IMVI): > 4000 nM | IC50 (LS-123): > 4000 nM | IC50 (TE-9): > 4000 nM

COc1cc2ncn(-c3cc(OCc4ccccc4C(F)(F)F)c(C(N)=O)s3)c2cc1OC [GW843682X]
IC50 (NB17): 41 nM | IC50 (COLO-684): 95.4 nM | IC50 (EW-1): 16.8 nM | IC50 (KNS-42): 24.7 nM | IC50 (EOL1): 42.3 nM | IC50 (8-MG-BA): 19.4 nM | IC50 (MZ7-mel): 83.9 nM | IC50 (KS-1): 26.6 nM | IC50 (HCE-4): 13.9 nM | IC50 (COLO-668): > 256 nM | IC50 (EW-16): 13.3 nM | IC50 (CGTH-W-1): > 256 nM | IC50 (LAN-6): 139 nM | IC50 (EW-11): > 256 nM | IC50 (HH): 98.8 nM | IC50 (DB): > 256 nM | IC50 (BV-173): 17.7 nM | IC50 (GAK): 185 nM | IC50 (TE-5): 23.4 nM | IC50 (COLO-800): > 256 nM | IC50 (no-11): 178 nM | IC50 (LB771-HNC): 60 nM | IC50 (JAR): 56.8 nM | IC50 (HDLM-2): 69.5 nM | IC50 (KM-H2): 20.5 nM | IC50 (Calu-6): 36.7 nM | IC50 (COLO-320-HSR): 28.1 nM | IC50 (TE-12): 27.3 nM | IC50 (ML-2): 50.3 nM | IC50 (BB30-HNC): 34.1 nM | IC50 (HL-60): 25.2 nM | IC50 (TE-8): 5.89 nM | IC50 (COLO-829): > 256 nM | IC50 (ES8): 10.5 nM | IC50 (KURAMOCHI): 50.1 nM | IC50 (NCI-H720): > 256 nM | IC50 (SHP77): 57.3 nM | IC50 (A253 cell line): 53.2 nM | IC50 (NCI-H1395): > 256 nM | IC50 (SW982): 25.3 nM | IC50 (A388): 15.2 nM | IC50 (D283 Med): > 256 nM | IC50 (ALL-PO): 8.76 nM | IC50 (LOX IMVI): 125 nM | IC50 (LS-123): 193 nM | IC50 (TE-9): 21.3 nM

CCN(CC)CCNC(=O)c1c(C)[nH]c(/C=C2\C(=O)Nc3ccc(F)cc32)c1C [SUNITINIB]
IC50 (NB17): > 8000 nM | IC50 (COLO-684): > 8000 nM | IC50 (EW-1): 4680 nM | IC50 (KNS-42): > 8000 nM | IC50 (EOL1): < 31.2 nM | IC50 (8-MG-BA): 6520 nM | IC50 (MZ7-mel): > 8000 nM | IC50 (KS-1): 1690 nM | IC50 (HCE-4): 3790 nM | IC50 (COLO-668): > 8000 nM | IC50 (EW-16): 2140 nM | IC50 (CGTH-W-1): 30.9 nM | IC50 (LAN-6): > 8000 nM | IC50 (EW-11): > 8000 nM | IC50 (HH): 4210 nM | IC50 (DB): > 8000 nM | IC50 (BV-173): 2340 nM | IC50 (GAK): […] | IC50 (TE-5): > 8000 nM | IC50 (COLO-800): > 8000 nM | IC50 (no-11): 7780 nM | IC50 (LB771-HNC): > 8000 nM | IC50 (JAR): 3990 nM | IC50 (HDLM-2): 6320 nM | IC50 (KM-H2): > 8000 nM | IC50 (Calu-6): > 8000 nM | IC50 (COLO-320-HSR): > 8000 nM | IC50 (TE-12): 805 nM | IC50 (ML-2): 2640 nM | IC50 (HL-60): 4210 nM | IC50 (TE-8): 2370 nM | IC50 (COLO-829): > 8000 nM | IC50 (ES8): > 8000 nM | IC50 (KURAMOCHI): > 8000 nM | IC50 (NCI-H720): > 8000 nM | IC50 (SHP77): > 8000 nM | IC50 (A253 cell line): > 8000 nM | IC50 (NCI-H1395): > 8000 nM | IC50 (SW982): 4550 nM | IC50 (A388): > 8000 nM | IC50 (D283 Med): > 8000 nM | IC50 (ALL-PO): 79.9 nM | IC50 (LOX IMVI): > 8000 nM | IC50 (LS-123): > 8000 nM | IC50 (TE-9): > 8000 nM
